Reference: patent US20200214999A1, “Method for Treating an Inflammatory Disorder” (Allianz Pharmascience Ltd., priority 2019, published 2020)

Experiments:
[1] = system: IMQ-induced psoriatic inflammation; assay: IMQ-induced psoriatic inflammation model, #1 animal experiment (10 days); format: in vivo, Balb/c mice; settings: for erythema, scaling, and thickness in lesional skins: photographic observation
Experimental: Balb/c mice were topical treated with imiquimod (IMQ) and with control cream, ASC-J9 or clobetasol for consecutive 10 days. (A) Schematic schedule was illustrated. Photographic observations in each group were shown at day 0 (B), day 5 (C) and day 10 (D).
Balb/c mice were topical treated with imiquimod (IMQ) and with control cream, ASC-J9 or clobetasol for consecutive 10 days. (A) The severity of inflammatory responses on the skin was assessed on the basis of the Psoriasis Area Severity Index. (B) Ten days after treatment, the mice were sacrificed and their skin thickness was measured with vernier caliper to assess the severity of the psoriatic responses. (C) Expession of cytokine genes in mouse skin after 10 day treatment by RT-qPCR. (D) H&E staining of lesional skin after 10 day treatment. *: p<0.05; **: […]; ns: not significant.
(§1) Animal Model of Psoriatic Inflammation: 30 or 40 mg of 5% IMQ gel (Aldara™) was smeared on the shaved backs of Balb/c mice each day for 5 or 10 days. The severity of the skin's inflammatory response was assessed on the basis of the Psoriasis Area Severity Index (PASI) as described. Briefly, the three parameters of psoriasis responses—erythema, scaling, and skin thickness—were scored independently on a scale from 0 to 4 as follows: 0: none; 1: slight; 2: moderate; 3: marked; and 4: very marked. By adding the scores from these three parameters, the severity of the response was measured using the cumulative score from 0 to 12. At the end of the experiment, the mice were sacrificed for measurement of skin thickness with vernier caliper. Group Assignments and Dose Levels of animal studies are described as follows:
(§2) The mice were (1) photoed for evaluation and analyzed (2) Psoriasis Area Severity Index (PASI); (3) Skin thickness measurement. We selected the sample in experiment with better inhibitory effect for further analysis by accessing: (1) H&E staining and (2) inflammatory gene expression including TNF-α, IL-1β, IL-17A, IL-22, IL-23 and IL-31 in lesional tissue by quantitative PCR (RT-qPCR).
We further evaluated anti-inflammatory effects of J9 on psoriatic inflammation in vivo. First, we compared the effects of J9 control cream, J9 cream and clobetasol on inhibition of IMQ-induced psoriatic inflammation in a 10-day experimental schedule (FIG. 5A). Mice of each group were photoed for evaluation at day 0, day 5 and day 10 (FIGS. 5B, 5C and 5D). […] In control cream group, there were no inhibitory effects observed (FIG. 5B). […] These phenomena were reached most severe at day 5 (FIGS. 5 and 6A). […] The skin thickness were measured at day 10. […] Expression of cytokine genes including TNF-α, IL-1β, IL-17A, IL-22, IL-23 and IL-31 in lesional skin were also analyzed. Of these cytokines, we observed that J9 attenuated IMQ-induced IL-1β expression at day 10 (FIG. 6C).

[2] = system: GMDC (mouse bone marrow derived myeloid dendritic cells); assay: MTS assay for cell viability (cytotoxicity) on GMDC; format: cell-based; settings: 24 hours, 0 μM to 10 μM tested
Experimental: (§3) Cells were treated with different concentration of ASC-J9 and ASC-JM17 for 24 hours. Viability of cells were measured by MTS Assays. *: p<0.05.
(§4) MTS assay for cell viability: The cell toxicity of test articles is measured by MTS assay. The MTS assay is based on the reduction of the MTS tetrazolium compound by viable cells to generate a colored formazan dye that is soluble in cell culture media. This conversion is thought to be carried out by NAD(P)H-dependent dehydrogenase enzymes in metabolically active cells. The formazan dye is quantified by measuring the absorbance at 490-500 nm. The non-toxic dose will be applied for further assays.
(§5) Cell culture: Mouse bone marrow derived dendritic cells (BMDC) and bone marrow derived macrophages (BMDM) were generated from mouse bone marrow cells. Briefly, dendritic cells can be generated by two induction procedures. Bone marrow cells can be induced into myeloid DCs called GMDC with GM-CSF and IL-4 for 10 days, while a mixed types of DCs including myeloid and plasmacytoid DCs called Fit3DC can be generated by induction with fit3-ligand for 10 days. […]
(§6) The goal of this example is to evaluate the anti-inflammatory abilities of J9 and JM17 on psoriatic inflammation in vitro and in vivo. To find the safety doses of J9 and JM17 for in vitro study, cytotoxicity of J9 and JM17 were measured by MTS assay. […]

[3] = system: Fit3DC (mouse bone marrow derived dendritic cells, fit3-ligand induced); assay: MTS assay for cell viability (cytotoxicity) on Fit3DC; format: cell-based; settings: 24 hours, 0 μM to 10 μM tested
Experimental: as §3, §4, §5, §6

[4] = system: inflammatory cytokine induced cytokine expression in dendritic cells (GMDC); assay: TNF-α or IL-1β induced cytokine expression in GMDC by RT-qPCR; format: cell-based, mouse; settings: GMDC pre-treated 1 hr, then TNF-α or IL-1β for 24 hrs
Experimental: Dendritic cells were pre-treated with different concentration of ASC-J9 and ASC-JM17 for 1 hour and then inflammatory cytokine TNF-α or IL-1β were added for 24 hours. Expression of mouse cytokine genes was measured by RT-qPCR. *: p<0.05; ns: not significant.
(§7) Cell culture: Mouse bone marrow derived dendritic cells (BMDC) and bone marrow derived macrophages (BMDM) were generated from mouse bone marrow cells. Briefly, dendritic cells can be generated by two induction procedures. Bone marrow cells can be induced into myeloid DCs called GMDC with GM-CSF and IL-4 for 10 days, while a mixed types of DCs including myeloid and plasmacytoid DCs called Fit3DC can be generated by induction with fit3-ligand for 10 days. To generate BMDMs, bone marrow cells are induced into BMDM by 30% L929 conditioned medium for 7 days.
(§8) Analysis of gene expression: Total RNA was purified from cells using Isol-RNA Lysis Reagent (5 PRIME GmbH, Hilden, Germany) according to the manufacturer's protocol. Reverse-transcription was performed using the QuantiNova® Reverse Transcription Kit (QIAGEN™) and oligo-dT primers for first-strand cDNA synthesis. Quantitative PCR was performed with gene-specific primers (see appendix) using LightCycler480 detection system (Roche Diagnostics GmbH, Penzberg, Germany) and QuantiNova® SYBR Green RT-PCR Kit for gene expression analysis. The level of mRNA expression was normalized to that of GAPDH.
(§9) Anti-inflammatory effects of J9 and JM17 for inflammatory cytokine including TNF-α, IL-1β, IL-17A, IL-22, IL-23 and IL-31 induced by TLR ligand in various immune cells including mouse splenocytes, mouse bone marrow derived dendritic cells and bone marrow derived macrophages were analyzed by quantitative PCR (RT-qPCR).
To evaluate the anti-inflammatory effects of J9 and JM17 in vitro, GMDC were pre-treated with J9 and JM17 for 1 hr and stimulated with the inflammatory cytokine, TNF-α or IL-1β[…]for 24 hrs. Expression of cytokines including TNF-α, IL-1β, IL-17A, IL-22, IL-23, and IL-31 were measured by RT-qPCR. […] Expression of IL-17A was not induced by TNF-α or IL-1β. […]

[5] = system: R848 induced cytokine expression in mouse splenocytes; assay: R848 induced cytokine expression in mouse splenocytes by RT-qPCR; format: cell-based; settings: 1 μM pre-treatment 1 hr, R848 6 hrs
Experimental: Mouse splenocytes were pre-treated with 1 μM of ASC-J9 or ASC-JM17 for 1 hour and then TLR ligand, R848 were added for 6 hours. Expression of mouse cytokine genes were measured by RT-qPCR. *: p<0.01.
as §8, §9
(§10) We also evaluate anti-inflammatory effects of J9 and JM17 on mouse splenocytes and bone marrow derived macrophages. Mouse splenocytes were pre-treated with J9 and JM17 for 1 hr and TLR ligand, R848, were then added for 6 hrs.

[6] = system: R848 induced cytokine expression in mouse bone marrow derived macrophages (BMDM); assay: R848 induced cytokine expression in bone marrow derived macrophages by RT-qPCR; format: cell-based; settings: 1 μM pre-treatment 1 hour, R848 6 hours
Experimental: Macrophages were pre-treated with 1 μM of ASC-J9 or ASC-JM17 for 1 hour and then TLR ligand, R848 were added for 6 hours. Expression of mouse cytokine genes were measured by RT-qPCR. *: p<0.01; ns: not significant.
as §7, §8, §9, §10

[7] = system: IMQ-induced psoriatic inflammation; assay: IMQ-induced psoriatic inflammation model, #2 animal experiment (5 days); format: in vivo, Balb/c mice; settings: for IMQ-induced inflammation: photographic observation
Experimental: Balb/c mice were topical treated with imiquimod (IMQ) and with control cream, different dose of ASC-J9 for consecutive 5 days. (A) Schematic schedule was illustrated. Photographic observations in each group were shown at day 0 (B), day 5 (C).
Balb/c mice were topical treated with imiquimod (IMQ) and with control cream, different dose of ASC-J9 for consecutive 5 days. (A) The severity of inflammatory responses on the skin was assessed on the basis of the Psoriasis Area Severity Index. (B) Five days after treatment, the mice were sacrificed and their skin thickness was measured with vernier caliper to assess the severity of the psoriatic responses. […]
as §1, §2
To further understand the therapeutic effects of different concentration of J9 cream, 0.5% J9 (2 mg/cm^2 and 6 mg/cm^2), 0.1% J9 (10 mg/cm^2) and 0.05% J9 cream(2 mg/cm^2) were used to evaluate therapeutic effects on IMQ-induced psoriatic inflammation in a five-day experimental schedule (FIG. 7A). Mice of each group were photoed for evaluation at day 0 and day 5 (FIGS. 7B and 7C). […] PASI score, skin thickness and gene expression of lesional skin were also measured.

[8] = system: artemin (ARTN) expression in keloid patient derived fibroblasts 256K and 268K; assay: ARTN mRNA expression in keloid patient derived fibroblasts by qPCR; format: cell-based, human; settings: keloid fibroblasts 256K and 268K, 24 hr treatment, mRNA by qPCR vs GAPDH
Experimental: Two keloid patient derived fibroblasts named 256K and 268K were treated with ASC-J9 for 24 hr. The cells were then harvested and mRNA expression of ARTN and GAPDH were determined by qPCR.

C[C@H]1C[C@H]2[C@@H]3CCC4=CC(=O)C=C[C@]4(C)[C@@]3(F)[C@@H](O)C[C@]2(C)[C@@]1(O)C(=O)CCl [clobetasol, reference compound]
skin thickness ([1]; clobetasol 0.05% 8 mg/cm^2, day 10, compared to sham control group): reduced skin thickness compared to sham control group
IMQ-induced erythema, scaling and increase of skin thickness in lesional skin ([1]; clobetasol 0.05% 8 mg/cm^2 topical daily, after 5 day treatment): strongly inhibited

COc1ccc(/C=C/C(=O)CC(=O)/C=C/c2ccc(OC)c(OC)c2)cc1OC [ASC-J9]
non-toxic doses (cells resistant up to) [2]: up to 10 μM
non-toxic doses (cells resistant up to) [3]: up to 10 μM
TNF-α or IL-1β induced IL-1β expression [4]: significantly inhibit
TNF-α or IL-1β induced IL-22 expression [4]: did not attenuate
TNF-α or IL-1β induced TNF-α expression [4]: significantly inhibit
R848 induced IL-1β expression [5]: significantly inhibited
R848 induced IL-17A expression [5]: significantly inhibited
R848 induced IL-22 expression [5]: significantly inhibited
R848 induced TNF-α expression [5]: significantly inhibited
R848-induced expression of IL-1β [6]: inhibited
R848-induced expression of IL-17A [6]: inhibited
R848-induced expression of IL-22 [6]: inhibited
R848-induced expression of IL-31 [6]: inhibited
R848-induced expression of TNF-α [6]: inhibited
erythema, scaling, and thickness in lesional skins ([1]; 0.5% J9 cream 2 mg/cm^2 topical daily, after 5 day treatment): significantly reduced
erythema, scaling, and thickness in lesional skins ([1]; 0.5% J9 cream 10 mg/cm^2 topical daily, after 5 day treatment): significantly reduced
IMQ-induced increase of skin thickness ([1]; J9 2 mg/cm^2, measured at day 10 with vernier caliper): significantly inhibited
Psoriasis Area Severity Index (PASI) score ([1]; J9 2 mg/cm^2 topical daily, at day 3 to day 10): significantly decreased
IMQ-induced increase of skin thickness ([1]; J9 10 mg/cm^2, measured at day 10 with vernier caliper): significantly inhibited
Psoriasis Area Severity Index (PASI) score ([1]; J9 10 mg/cm^2 topical daily, at day 4 to day 6): significantly decreased
IMQ-induced IL-1β expression in lesional skin ([1]; at day 10, RT-qPCR): attenuated
thickeness of the epidermis and dermis and keratinocyte proliferation in epidermis and inflammation (H&E staining) ([1]; lesional skin after 10 day treatment): reduced
IMQ-induced expression of IL-1(3 in lesional skin) ([7]; 0.1% J9 10 mg/cm^2, RT-qPCR): inhibited
IMQ-induced expression of TNF-a in lesional skin ([7]; 0.1% J9 10 mg/cm^2, RT-qPCR): inhibited
IMQ-induced inflammation ([7]; 0.1% J9 10 mg/cm^2, after 5 day treatment): inhibited
PASI scores ([7]; 0.1% J9 10 mg/cm^2, at day 4 to day 5): marked decreased
IMQ-induced expression of IL-1(3 in lesional skin) ([7]; 0.5% J9 2 mg/cm^2, RT-qPCR): inhibited
IMQ-induced expression of TNF-a in lesional skin ([7]; 0.5% J9 2 mg/cm^2, RT-qPCR): inhibited
IMQ-induced inflammation ([7]; 0.5% J9 2 mg/cm^2, after 5 day treatment): inhibited
PASI scores ([7]; 0.5% J9 2 mg/cm^2, at day 4 to day 5): marked decreased
IMQ-induced expression of IL-1(3 in lesional skin) ([7]; 0.5% J9 6 mg/cm^2, RT-qPCR): inhibited
IMQ-induced expression of TNF-a in lesional skin ([7]; 0.5% J9 6 mg/cm^2, RT-qPCR): inhibited
IMQ-induced inflammation ([7]; 0.5% J9 6 mg/cm^2, after 5 day treatment): inhibited
PASI scores ([7]; 0.5% J9 6 mg/cm^2, at day 4 to day 5): marked decreased
artemin (ARTN) expression (pruritus marker) [8]: down-regulating
